The values below come from patent US20260176320A1, “MODULATORS OF G-PROTEIN COUPLED RECEPTORS” (priority 2018, published 2026).

Like-named read-outs stand apart in the source and are kept apart here.

In one experiment the target is GLP-1R (Homo sapiens, UniProt P43220). The experiment in a line: HitHunter cAMP assay (GLP-1R). The format is cell-based. As to conditions: cAMP, read-out: (Emax) GLP-1R. The essentials: (§1)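 cAMP accumulation read by luminescent HitHunter immunocompetition after 30 min room-temperature agonist stimulation. Agonists tested as 22-point twofold dilutions, in duplicate, on 10,000 cells/well in HBSS containing 625 μM IBMX, 10 mM HEPES and 0.2% BSA.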
(In general: Changes in cAMP serve as a functional read-out for many G protein-coupled receptors.)

A further experiment addresses T1, GIP-R (Homo sapiens, UniProt P48546).
T1 sequence (P48546 22-466): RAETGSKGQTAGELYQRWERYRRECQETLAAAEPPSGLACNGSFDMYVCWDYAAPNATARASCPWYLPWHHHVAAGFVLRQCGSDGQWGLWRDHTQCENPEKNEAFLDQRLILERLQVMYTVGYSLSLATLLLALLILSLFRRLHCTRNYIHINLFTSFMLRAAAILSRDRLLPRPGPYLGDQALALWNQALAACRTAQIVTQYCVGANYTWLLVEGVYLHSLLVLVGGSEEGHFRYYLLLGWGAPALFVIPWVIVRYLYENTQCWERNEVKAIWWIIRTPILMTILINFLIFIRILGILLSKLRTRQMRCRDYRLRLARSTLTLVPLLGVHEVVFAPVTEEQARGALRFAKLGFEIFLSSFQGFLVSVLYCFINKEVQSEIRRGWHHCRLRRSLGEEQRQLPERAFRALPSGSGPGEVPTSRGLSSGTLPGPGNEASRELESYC
The experiment in a line: HitHunter cAMP assay (GIP-R). To be noted: cAMP, read-out: (Emax) GIP-R. Format: cell-based. The essentials: as §1

Chain of GLP-1R (P43220 24-463): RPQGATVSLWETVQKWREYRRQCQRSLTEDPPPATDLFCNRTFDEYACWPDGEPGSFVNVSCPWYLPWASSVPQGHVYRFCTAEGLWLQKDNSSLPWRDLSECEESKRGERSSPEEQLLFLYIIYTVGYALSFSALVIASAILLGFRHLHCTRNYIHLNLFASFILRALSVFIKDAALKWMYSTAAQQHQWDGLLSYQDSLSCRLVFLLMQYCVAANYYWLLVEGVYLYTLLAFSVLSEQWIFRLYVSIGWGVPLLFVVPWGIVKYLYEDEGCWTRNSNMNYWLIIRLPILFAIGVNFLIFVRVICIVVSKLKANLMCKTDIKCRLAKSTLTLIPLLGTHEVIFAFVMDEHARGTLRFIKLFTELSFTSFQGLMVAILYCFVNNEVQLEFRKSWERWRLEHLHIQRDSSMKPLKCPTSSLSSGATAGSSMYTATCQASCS

What is called Emax is the greatest response seen or fitted, relative to the assay's reference. Consider `CCCCCCCCCCCCCCCC(=O)N[C@@H](CCC(=O)NCCCC[C@H](NC(=O)[C@H](CO)NC(=O)[C@@H]1CCCN1C(=O)[C@@H]1CCCN1C(=O)[C@@H]1CCCN1C(=O)[C@H](C)NC(=O)CNC(=O)[C@H](CO)NC(=O)[C@H](CO)NC(=O)[C@@H]1CCCN1C(=O)CNC(=O)CNC(=O)[C@H](C)NC(=O)[C@H](CC(C)C)NC(=O)[C@H](CC(C)C)NC(=O)[C@H](Cc1c[nH]c2ccccc12)NC(=O)[C@H](CC(N)=O)NC(=O)[C@@H](NC(=O)[C@H](Cc1ccccc1)NC(=O)[C@H](CCC(=O)O)NC(=O)C(C)(C)NC(=O)[C@H](C)NC(=O)[C@H](C)NC(=O)[C@H](CCC(N)=O)NC(=O)[C@H](CCCCN)NC(=O)[C@H](CC(=O)O)NC(=O)[C@H](CC(C)C)NC(=O)[C@H](Cc1ccc(O)cc1)NC(=O)[C@@H](NC(=O)[C@H](CO)NC(=O)[C@H](Cc1ccc(O)cc1)NC(=O)[C@H](CC(=O)O)NC(=O)[C@H](CO)NC(=O)[C@@H](NC(=O)[C@H](Cc1ccccc1)NC(=O)[C@@H](NC(=O)CNC(=O)[C@H](CCC(=O)O)NC(=O)CSCC(=O)NCCN1C(=O)C[C@H](CC)C1=O)[C@@H](C)O)[C@@H](C)O)[C@@H](C)CC)C(C)C)C(N)=O)C(=O)O` (single isomer, unassigned) [Compound 62], for which the maximal response (Emax) on GLP-1R (Table 3) was 101%; at GLP-1R (Table 3A), 101%; on GIP-R (Table 3), 48%; at GIP-R (Table 3A) it was 48%.
Turning to `CCCCCCCCCCCCCCCC(=O)N[C@@H](CCC(=O)NCCCC[C@H](NC(=O)[C@H](CO)NC(=O)[C@@H]1CCCN1C(=O)[C@@H]1CCCN1C(=O)[C@@H]1CCCN1C(=O)[C@H](C)NC(=O)CNC(=O)[C@H](CO)NC(=O)[C@H](CO)NC(=O)[C@@H]1CCCN1C(=O)CNC(=O)CNC(=O)[C@H](C)NC(=O)[C@H](CC(C)C)NC(=O)[C@H](CC(C)C)NC(=O)[C@H](Cc1c[nH]c2ccccc12)NC(=O)[C@H](CC(N)=O)NC(=O)[C@@H](NC(=O)[C@H](Cc1ccccc1)NC(=O)[C@H](CCC(=O)O)NC(=O)C(C)(C)NC(=O)[C@H](C)NC(=O)[C@H](C)NC(=O)[C@H](CCC(N)=O)NC(=O)[C@H](CCCCN)NC(=O)[C@H](CC(=O)O)NC(=O)[C@H](CC(C)C)NC(=O)[C@H](Cc1ccc(O)cc1)NC(=O)[C@@H](NC(=O)[C@H](CO)NC(=O)[C@H](Cc1ccc(O)cc1)NC(=O)[C@H](CC(=O)O)NC(=O)[C@H](CO)NC(=O)[C@@H](NC(=O)[C@H](Cc1ccccc1)NC(=O)[C@@H](NC(=O)CNC(=O)[C@H](CCC(=O)O)NC(=O)CSCC(=O)NCCN1C(=O)[C@@H](C)[C@H](C)C1=O)[C@@H](C)O)[C@@H](C)O)[C@@H](C)CC)C(C)C)C(N)=O)C(=O)O` (single isomer, unassigned) [Compound 63], the Emax on GLP-1R (Table 3) turned out to be 91%; on GLP-1R (Table 3A), 91%; at GIP-R (Table 3), 24%; at GIP-R (Table 3A) it was 24%.
Turning to `CCCCCCCCCCCCCCCC(=O)N[C@@H](CCC(=O)NCCCC[C@H](NC(=O)[C@H](CO)NC(=O)[C@@H]1CCCN1C(=O)[C@@H]1CCCN1C(=O)[C@@H]1CCCN1C(=O)[C@H](C)NC(=O)CNC(=O)[C@H](CO)NC(=O)[C@H](CO)NC(=O)[C@@H]1CCCN1C(=O)CNC(=O)CNC(=O)[C@H](C)NC(=O)[C@H](CC(C)C)NC(=O)[C@H](CC(C)C)NC(=O)[C@H](Cc1c[nH]c2ccccc12)NC(=O)[C@H](CC(N)=O)NC(=O)[C@@H](NC(=O)[C@H](Cc1ccccc1)NC(=O)[C@H](CCC(=O)O)NC(=O)C(C)(C)NC(=O)[C@H](C)NC(=O)[C@H](C)NC(=O)[C@H](CCC(N)=O)NC(=O)[C@H](CCCCN)NC(=O)[C@H](CC(=O)O)NC(=O)[C@H](CC(C)C)NC(=O)[C@H](Cc1ccc(O)cc1)NC(=O)[C@@H](NC(=O)[C@H](CO)NC(=O)[C@H](Cc1ccc(O)cc1)NC(=O)[C@H](CC(=O)O)NC(=O)[C@H](CO)NC(=O)[C@@H](NC(=O)[C@H](Cc1ccccc1)NC(=O)[C@@H](NC(=O)CNC(=O)[C@H](CCC(=O)O)NC(=O)CSCC(=O)NCCN1C[C@@H](C)CC1=O)[C@@H](C)O)[C@@H](C)O)[C@@H](C)CC)C(C)C)C(N)=O)C(=O)O` (single isomer, unassigned) [Compound 64], the maximal response (Emax) on GLP-1R (Table 3) amounted to 97%; on GLP-1R (Table 3A), 97%; on GIP-R (Table 3), 35%; on GIP-R (Table 3A) it was 35%.
